From ChEMBL document CHEMBL3351907, “Design, synthesis and biological evaluation of benzyl 2-(1H-imidazole-1-yl) pyrimidine analogues as selective and potent Raf inhibitors” (Bioorg Med Chem Lett, 2014)

Assays:
[1] = molecular target: Tyrosine-protein kinase Lyn (Homo sapiens) (UniProt P07948); assay: Inhibition of LYN (unknown origin) at 10 uM
[2] = molecular target: Dual specificity mitogen-activated protein kinase kinase 1 (Homo sapiens) (UniProt Q02750); assay: Inhibition of MEK1 (unknown origin) at 10 uM
[3] = molecular target: Insulin-like growth factor 1 receptor (Homo sapiens) (UniProt P08069); assay: Inhibition of IGF1R (unknown origin) at 10 uM
[4] = molecular target: T1, RAF proto-oncogene serine/threonine-protein kinase (Homo sapiens, UniProt P04049); assay: Inhibition of cRAF1 (unknown origin) at 10 uM
T1 sequence (P04049 whole entry): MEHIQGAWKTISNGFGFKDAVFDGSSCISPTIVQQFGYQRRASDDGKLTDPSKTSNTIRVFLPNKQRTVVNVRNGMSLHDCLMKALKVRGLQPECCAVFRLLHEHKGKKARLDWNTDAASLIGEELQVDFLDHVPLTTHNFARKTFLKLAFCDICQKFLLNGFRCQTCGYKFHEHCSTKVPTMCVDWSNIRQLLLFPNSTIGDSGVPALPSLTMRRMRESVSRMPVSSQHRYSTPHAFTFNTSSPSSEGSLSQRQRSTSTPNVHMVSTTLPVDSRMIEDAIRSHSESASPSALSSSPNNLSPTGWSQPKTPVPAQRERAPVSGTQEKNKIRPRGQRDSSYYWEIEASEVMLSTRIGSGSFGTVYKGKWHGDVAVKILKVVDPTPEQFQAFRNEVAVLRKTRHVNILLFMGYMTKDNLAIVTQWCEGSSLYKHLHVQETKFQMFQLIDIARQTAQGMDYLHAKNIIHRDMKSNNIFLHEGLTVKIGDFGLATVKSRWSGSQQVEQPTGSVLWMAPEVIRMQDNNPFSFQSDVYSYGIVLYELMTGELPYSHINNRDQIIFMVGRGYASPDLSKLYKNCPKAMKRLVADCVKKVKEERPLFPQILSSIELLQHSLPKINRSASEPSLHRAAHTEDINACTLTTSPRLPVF

[5] = molecular target: Mast/stem cell growth factor receptor Kit (Homo sapiens) (UniProt P10721); assay: Inhibition of c-Kit (unknown origin) at 10 uM
[6] = Cytotoxicity against human A375P cells assessed as cell viability after 24 hrs by MTT assay; assay type: functional
Homo sapiens = organism: Homo sapiens; assay: Inhibition of PKA (unknown origin) at 10 uM
[7] = molecular target: Tyrosine-protein kinase SYK (Homo sapiens) (UniProt P43405); assay: Inhibition of SYK (unknown origin) at 10 uM
[8] = molecular target: Glycogen synthase kinase-3 beta (Homo sapiens) (UniProt P49841); assay: Inhibition of GSK3b (unknown origin) at 10 uM
[9] = molecular target: Hepatocyte growth factor receptor (Homo sapiens) (UniProt P08581); assay: Inhibition of c-MET (unknown origin) at 10 uM
[10] = Cytotoxicity against human U937 cells assessed as cell viability after 24 hrs by MTT assay; assay type: functional; details: U-937, 24 h
[11] = molecular target: T2, Mitogen-activated protein kinase 14 (Homo sapiens, UniProt Q16539); assay: Inhibition of P38a/MAPK14 (unknown origin)
T2 sequence (Q16539 whole entry): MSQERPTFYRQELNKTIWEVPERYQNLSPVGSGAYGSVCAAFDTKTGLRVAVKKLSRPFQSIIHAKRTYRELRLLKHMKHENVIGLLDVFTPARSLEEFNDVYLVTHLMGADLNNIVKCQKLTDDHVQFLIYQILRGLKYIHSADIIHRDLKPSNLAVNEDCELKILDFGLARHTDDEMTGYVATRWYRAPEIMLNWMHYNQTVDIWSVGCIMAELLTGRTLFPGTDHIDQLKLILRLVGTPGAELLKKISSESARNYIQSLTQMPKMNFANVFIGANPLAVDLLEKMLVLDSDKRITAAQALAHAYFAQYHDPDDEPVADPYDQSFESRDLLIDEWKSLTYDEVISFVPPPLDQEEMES

[12] = molecular target: Mitogen-activated protein kinase 10 (Homo sapiens) (UniProt P53779); assay: Inhibition of JNK3 (unknown origin) at 10 uM
Sequence of Mitogen-activated protein kinase 10 (Homo sapiens) (P53779 whole entry): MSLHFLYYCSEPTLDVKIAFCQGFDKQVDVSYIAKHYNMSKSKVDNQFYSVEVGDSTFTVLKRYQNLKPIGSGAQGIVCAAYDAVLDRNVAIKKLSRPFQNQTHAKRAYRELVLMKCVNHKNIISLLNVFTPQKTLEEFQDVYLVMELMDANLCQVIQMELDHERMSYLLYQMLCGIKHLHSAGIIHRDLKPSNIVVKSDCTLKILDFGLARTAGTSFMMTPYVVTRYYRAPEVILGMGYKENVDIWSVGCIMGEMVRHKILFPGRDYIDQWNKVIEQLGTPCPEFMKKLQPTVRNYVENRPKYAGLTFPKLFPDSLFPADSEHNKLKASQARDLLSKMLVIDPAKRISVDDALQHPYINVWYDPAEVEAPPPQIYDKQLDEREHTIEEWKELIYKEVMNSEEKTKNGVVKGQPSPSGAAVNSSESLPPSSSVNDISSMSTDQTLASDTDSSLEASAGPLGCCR

[13] = molecular target: ALK tyrosine kinase receptor (Homo sapiens) (UniProt Q9UM73); assay: Inhibition of ALK (unknown origin) at 10 uM
[14] = molecular target: Macrophage colony-stimulating factor 1 receptor (Homo sapiens) (UniProt P07333); assay: Inhibition of FMS (unknown origin) at 10 uM
[15] = molecular target: RAC-alpha serine/threonine-protein kinase (Homo sapiens) (UniProt P31749); assay: Inhibition of AKT1 (unknown origin) at 10 uM
[16] = molecular target: Mitogen-activated protein kinase 3 (Homo sapiens) (UniProt P27361); assay: Inhibition of ERK1 (unknown origin) at 10 uM
[17] = molecular target: Aurora kinase A (Homo sapiens) (UniProt O14965); assay: Inhibition of Aurora A (unknown origin) at 10 uM
Sequence of Aurora kinase A (Homo sapiens) (O14965 whole entry): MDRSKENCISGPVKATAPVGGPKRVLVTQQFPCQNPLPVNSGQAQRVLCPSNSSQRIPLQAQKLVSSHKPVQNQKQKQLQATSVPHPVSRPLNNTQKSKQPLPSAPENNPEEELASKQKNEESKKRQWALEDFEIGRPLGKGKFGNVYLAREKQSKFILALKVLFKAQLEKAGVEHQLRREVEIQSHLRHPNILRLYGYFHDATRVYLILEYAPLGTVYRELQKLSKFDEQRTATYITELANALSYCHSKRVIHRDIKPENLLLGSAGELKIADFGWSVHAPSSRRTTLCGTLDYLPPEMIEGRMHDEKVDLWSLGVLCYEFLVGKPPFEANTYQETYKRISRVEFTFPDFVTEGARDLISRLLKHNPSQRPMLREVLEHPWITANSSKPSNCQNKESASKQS

[18] = molecular target: T1, RAF proto-oncogene serine/threonine-protein kinase; assay: Inhibition of RAF1 (unknown origin) at 10 uM
[19] = molecular target: Focal adhesion kinase 1 (Homo sapiens) (UniProt Q05397); assay: Inhibition of FAK/PTK2 (unknown origin) at 10 uM
[20] = molecular target: Tyrosine-protein kinase JAK3 (Homo sapiens) (UniProt P52333); assay: Inhibition of JAK3 (unknown origin) at 10 uM
Sequence of Tyrosine-protein kinase JAK3 (Homo sapiens) (P52333 whole entry): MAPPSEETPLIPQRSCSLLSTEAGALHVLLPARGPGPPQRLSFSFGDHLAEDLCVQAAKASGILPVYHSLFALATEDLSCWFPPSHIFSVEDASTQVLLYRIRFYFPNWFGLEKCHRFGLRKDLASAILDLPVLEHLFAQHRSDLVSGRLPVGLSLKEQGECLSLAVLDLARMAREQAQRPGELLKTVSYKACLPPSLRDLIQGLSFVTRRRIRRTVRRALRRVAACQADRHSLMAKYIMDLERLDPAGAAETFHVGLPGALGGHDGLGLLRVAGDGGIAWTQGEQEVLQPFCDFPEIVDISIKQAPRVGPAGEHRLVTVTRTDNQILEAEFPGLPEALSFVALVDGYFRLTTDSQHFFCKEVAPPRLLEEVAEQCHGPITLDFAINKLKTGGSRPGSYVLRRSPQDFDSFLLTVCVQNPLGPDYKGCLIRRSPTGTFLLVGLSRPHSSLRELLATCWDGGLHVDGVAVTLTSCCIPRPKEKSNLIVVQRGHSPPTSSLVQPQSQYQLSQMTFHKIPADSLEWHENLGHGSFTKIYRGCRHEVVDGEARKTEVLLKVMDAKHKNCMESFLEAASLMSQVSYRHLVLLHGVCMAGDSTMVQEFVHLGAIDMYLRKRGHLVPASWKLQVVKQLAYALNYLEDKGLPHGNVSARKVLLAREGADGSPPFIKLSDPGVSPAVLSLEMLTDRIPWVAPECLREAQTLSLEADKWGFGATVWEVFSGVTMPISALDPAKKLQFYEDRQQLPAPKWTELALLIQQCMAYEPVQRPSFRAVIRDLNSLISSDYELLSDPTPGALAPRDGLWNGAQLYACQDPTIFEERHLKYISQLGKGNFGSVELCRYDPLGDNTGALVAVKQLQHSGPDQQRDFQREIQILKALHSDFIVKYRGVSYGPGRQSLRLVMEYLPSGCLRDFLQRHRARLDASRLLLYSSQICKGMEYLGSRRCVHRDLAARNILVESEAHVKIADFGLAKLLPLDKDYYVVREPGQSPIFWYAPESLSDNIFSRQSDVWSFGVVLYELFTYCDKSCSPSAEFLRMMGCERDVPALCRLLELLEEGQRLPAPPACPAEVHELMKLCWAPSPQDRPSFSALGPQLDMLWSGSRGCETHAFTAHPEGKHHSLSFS

[21] = molecular target: Proto-oncogene tyrosine-protein kinase Src (Homo sapiens) (UniProt P12931); assay: Inhibition of c-Src (unknown origin) at 10 uM
[22] = molecular target: T3, Serine/threonine-protein kinase B-raf (Homo sapiens, UniProt P15056); details: 10 uM
T3 sequence (P15056 whole entry): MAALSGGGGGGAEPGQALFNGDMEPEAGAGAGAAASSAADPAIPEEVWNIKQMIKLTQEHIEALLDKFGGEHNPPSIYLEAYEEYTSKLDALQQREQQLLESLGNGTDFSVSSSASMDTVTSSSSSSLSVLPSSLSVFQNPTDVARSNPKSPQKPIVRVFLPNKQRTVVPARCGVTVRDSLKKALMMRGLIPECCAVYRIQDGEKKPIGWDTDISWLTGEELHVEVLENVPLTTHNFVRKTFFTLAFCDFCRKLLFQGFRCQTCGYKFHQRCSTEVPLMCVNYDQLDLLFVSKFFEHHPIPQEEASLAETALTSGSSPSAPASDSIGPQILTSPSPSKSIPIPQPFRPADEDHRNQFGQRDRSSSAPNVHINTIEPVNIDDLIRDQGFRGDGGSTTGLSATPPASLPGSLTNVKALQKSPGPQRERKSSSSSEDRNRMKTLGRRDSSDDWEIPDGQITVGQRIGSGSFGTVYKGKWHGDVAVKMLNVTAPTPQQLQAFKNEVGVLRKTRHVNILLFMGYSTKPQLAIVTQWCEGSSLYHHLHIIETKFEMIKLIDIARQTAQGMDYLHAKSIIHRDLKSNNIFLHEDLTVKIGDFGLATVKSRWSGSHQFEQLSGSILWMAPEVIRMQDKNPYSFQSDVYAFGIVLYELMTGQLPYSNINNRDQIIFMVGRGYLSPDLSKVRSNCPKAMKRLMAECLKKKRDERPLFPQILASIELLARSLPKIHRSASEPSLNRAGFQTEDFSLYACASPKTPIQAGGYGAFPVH
Description: Inhibition of BRAF (unknown origin) at 10 uM

[23] = molecular target: Receptor-type tyrosine-protein kinase FLT3 (Homo sapiens) (UniProt P36888); assay: Inhibition of FLT3 (unknown origin) at 10 uM
[24] = test system: Serine/threonine-protein kinase B-raf (Homo sapiens), P15056 [V600E]; details: 10 uM
Sequence of Serine/threonine-protein kinase B-raf (Homo sapiens), P15056 [V600E] (P15056 whole entry V600E): as the sequence (P15056 whole entry) above, with V600E counted along it
Description: Inhibition of BRAF V599E mutant (unknown origin) at 10 uM

[25] = molecular target: T2, Mitogen-activated protein kinase 14; assay: Inhibition of P38a/MAPK14 (unknown origin) at 10 uM
[26] = molecular target: T3, Serine/threonine-protein kinase B-raf; assay: Inhibition of BRAF (unknown origin)
[27] = molecular target: Tyrosine-protein kinase ABL1 (Homo sapiens) (UniProt P00519); assay: Inhibition of ABL1 (unknown origin) at 10 uM
Sequence of Tyrosine-protein kinase ABL1 (Homo sapiens) (P00519 whole entry): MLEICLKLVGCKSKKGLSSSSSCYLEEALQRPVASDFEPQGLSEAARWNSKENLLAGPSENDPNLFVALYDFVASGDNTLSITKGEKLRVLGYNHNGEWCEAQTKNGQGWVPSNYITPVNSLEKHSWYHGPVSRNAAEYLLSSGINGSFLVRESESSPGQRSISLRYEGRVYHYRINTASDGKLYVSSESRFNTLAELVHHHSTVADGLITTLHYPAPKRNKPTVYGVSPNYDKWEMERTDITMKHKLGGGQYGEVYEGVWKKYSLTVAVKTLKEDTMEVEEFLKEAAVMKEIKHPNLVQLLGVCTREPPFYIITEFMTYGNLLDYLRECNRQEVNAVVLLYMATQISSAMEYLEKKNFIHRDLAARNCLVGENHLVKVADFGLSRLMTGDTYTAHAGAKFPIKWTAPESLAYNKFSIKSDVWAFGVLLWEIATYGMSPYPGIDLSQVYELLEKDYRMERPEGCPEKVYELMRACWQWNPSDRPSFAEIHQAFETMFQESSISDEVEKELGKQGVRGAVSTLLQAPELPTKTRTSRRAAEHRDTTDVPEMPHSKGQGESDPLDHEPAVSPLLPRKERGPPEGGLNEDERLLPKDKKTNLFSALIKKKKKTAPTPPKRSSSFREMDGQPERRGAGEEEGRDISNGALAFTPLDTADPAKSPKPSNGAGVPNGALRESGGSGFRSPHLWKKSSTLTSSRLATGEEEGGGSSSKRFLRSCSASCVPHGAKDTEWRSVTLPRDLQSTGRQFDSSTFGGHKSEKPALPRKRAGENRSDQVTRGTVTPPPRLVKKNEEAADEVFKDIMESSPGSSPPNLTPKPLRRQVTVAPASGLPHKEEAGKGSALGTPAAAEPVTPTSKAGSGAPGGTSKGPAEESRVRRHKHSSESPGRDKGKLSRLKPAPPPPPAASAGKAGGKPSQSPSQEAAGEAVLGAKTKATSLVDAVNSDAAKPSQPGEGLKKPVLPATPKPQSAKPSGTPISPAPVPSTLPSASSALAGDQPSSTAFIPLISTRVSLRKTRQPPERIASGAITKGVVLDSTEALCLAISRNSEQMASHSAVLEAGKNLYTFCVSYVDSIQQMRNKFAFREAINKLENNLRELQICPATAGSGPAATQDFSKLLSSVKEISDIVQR

[28] = molecular target: Fibroblast growth factor receptor 3 (Homo sapiens) (UniProt P22607); assay: Inhibition of FGFR3 (unknown origin) at 10 uM
[29] = molecular target: Tyrosine-protein kinase Lck (Homo sapiens) (UniProt P06239); assay: Inhibition of LCK (unknown origin) at 10 uM
[30] = molecular target: Serine/threonine-protein kinase B-raf (Homo sapiens, UniProt P15056, V600E); assay: Inhibition of BRAF V599E mutant (unknown origin)
[31] = molecular target: Cyclin-dependent kinase 1/cyclin B1 (Homo sapiens) (UniProt P06493+P14635); assay: Inhibition of CDK1/cyclin B (unknown origin) at 10 uM; assay type: protein-complex assay
[32] = molecular target: Proto-oncogene tyrosine-protein kinase ROS (Homo sapiens) (UniProt P08922); assay: Inhibition of ROS/ROS1 (unknown origin) at 10 uM
[33] = molecular target: Epidermal growth factor receptor (Homo sapiens) (UniProt P00533); assay: Inhibition of EGFR (unknown origin) at 10 uM
[34] = molecular target: Macrophage-stimulating protein receptor (Homo sapiens) (UniProt Q04912); assay: Inhibition of RON/MST1R (unknown origin) at 10 uM
[35] = molecular target: Serine/threonine-protein kinase PLK1 (Homo sapiens) (UniProt P53350); assay: Inhibition of PLK1 (unknown origin) at 10 uM
[36] = molecular target: Tyrosine-protein kinase BTK (Homo sapiens) (UniProt Q06187); assay: Inhibition of BTK (unknown origin) at 10 uM
[37] = molecular target: Serine/threonine-protein kinase mTOR (Homo sapiens) (UniProt P42345); assay: Inhibition of mTOR/FRAP1 (unknown origin) at 10 uM

SMILES: C[C@H](O)CNc1nccc(-n2ccnc2Cc2cccc(NC(=O)Nc3ccc(Cl)c(C(F)(F)F)c3)c2)n1
- inhibition [1]: 8.1%
- inhibition [2]: 0%
- inhibition [3]: 0%
- IC50 [4]: 8.79 nM
- inhibition [5]: 63.8%
- GI50 [6]: 1820 nM
- inhibition (Homo sapiens): 0%
- inhibition [7]: 0%
- inhibition [8]: 34.5%
- inhibition [9]: 17.6%
- GI50 [10]: 2730 nM
- IC50 [11]: 571 nM
- inhibition [12]: 0%
- inhibition [13]: 4.9%
- inhibition [14]: 33.6%
- inhibition [15]: 12.9%
- inhibition [16]: 0%
- inhibition [17]: 17.6%
- inhibition [18]: 98.7%
- inhibition [19]: 1.2%
- inhibition [20]: 0%
- inhibition [21]: 2.1%
- inhibition [22]: 99.9%
- inhibition [23]: 68.4%
- inhibition [24]: 96.1%
- inhibition [25]: 94.3%
- IC50 [26]: 186 nM
- inhibition [27]: 6.9%
- inhibition [28]: 3.5%
- inhibition [29]: 5.8%
- IC50 [30]: 38.3 nM
- inhibition [31]: 34.8%
- inhibition [32]: 0.73%
- inhibition [33]: 0%
- inhibition [34]: 0.42%
- inhibition [35]: 9.9%
- inhibition [36]: 0%
- inhibition [37]: 0%
